System: second order mesenteric resistance arteries
Assay: Pressure myograph system, vessel lumen diameter under controlled barometric pressure
Set-up: species or system mice
Settings: for maximal increase in lumen diameter, cumulative response curve to methylcholine: doses 1 nM to 1 μM, barometric pressure PB674; for constriction or relaxation of vessel to drug administered in the bath: vessels immersed in Ca2+-free solution, n=7, p>0.05
Procedure: Four-month-old male C57 mice were given access to standard chow and water ad-libitum and were housed on a 12 h-12 h light-dark cycle. Mice were euthanized through sodium pentobarbital administered interperitonially, and their mesenteries were removed and placed in freshly prepared cold physiological salt solution (10 HEPES, 5.5 glucose, 1.56 CaCl2, 4.7 KCl, 142 NaCl, 1.17 MgSO4, 1.18 KH2PO4, pH 7.5.).
Two second order resistance arteries were dissected of surrounding connective tissue and mounted within a pressure myograph system (Living Systems Instrumentation; Burlington, Vt.). Vessels were tied onto glass cannulas with microscopic suture thread segments. Each vessel was immersed in a physiological salt solution bath, maintained at a temperature of 37° C. with the aid of a built-in temperature feedback mechanism connected to a miniature heating system. Intravascular pressure and flow were measured and alterable using pressure and flow control systems. A peristaltic pump was used to maintain specific rates of flow across the lumens vessels mounted in the pressure myograph system. To mimic physiological conditions as best as possible, the vessels were oriented as such that flow would be applied in the same direction as in vivo blood flow. The vessels were maintained at a perfusion pressure of 60 mmHg, the approximated in vivo mesentery arterial pressure of mice.
Vessels were exposed to phenylephrine and methylcholine before the start of every protocol to ensure the vessel was intact and capable of responding to pressure and flow stimuli. In some protocols, one bath of the pressure myograph was infused with inhibitors of nitric oxide synthase and prostacyclins to inhibit the action of these two major endogenous endothelial vasodilators. This was performed in order to assess the effect of barometric pressure on mesenteric arteries isolated from the vasoactive influences of nitric oxide and prostacyclins.
The entire myograph system was enclosed within a barometric pressure controlled chamber, capable of being sealed and pressure-controlled when necessary (FIG. 11). A control pressure was established on the pressure sensor in relation to the atmospheric pressure denoted by the meteorological service of Canada (Edmonton station). Pressure conditions PB714 and PB674 were assigned as 40 mmHg and 80 mmHg below atmospheric pressure, respectively. The conditions were maintained through a pressure apparatus.
A pressure transducer and flow regulator coupled with a peristaltic pump mechanisms was set up so as to be manipulated from outside upon sealing the barometric pressure chamber around the myograph system. […]
Vessel diameters and wall thicknesses were recorded with the help of a microscope-coupled micrometer. […]

Row | Structure (SMILES) | maximal increase in lumen diameter, cumulative response curve to methylcholine (with L-NAME and meclofenamate (FIG. 4B)) [%] | maximal increase in lumen diameter, cumulative response curve to methylcholine (without inhibitors (FIG. 4A)) [%] | constriction or relaxation of vessel to drug administered in the bath
1 | CC(=O)OC(C)C[N+](C)(C)C (stereo not shown) | 133 | 122 | no constriction to phenylephrine or relaxation
2 | CNC[C@H](O)c1cccc(O)c1 [phenylephrine] | – | – | no constriction
